According to US6525200B1, “Multicyclic aromatic compounds and uses thereof” (Roche Diagnostics Corporation, priority 2000, dated 2003):
Structures can show the parent of a compound that is named as a salt. Where two headings read alike, the source gives them in different places. Each block holds one compound with its values, some of them ahead of it.

How the values were obtained:
[1] = Fluorescence complexation studies of receptors with urea; type: binding
Experimental: (§1) UV-visible absorbance and fluorescence were examined. UV spectra were recorded on a Hewlett-Packard 8452A diode array UV-vis spectrophotometer, using a cell of 1 cm pathlength. Fluorescence spectra were recorded on a Photon Technology International QM-1 Steady state Fluorescence system. For UV-visible titrations stability constants (Ks) were calculated by fitting the data to the equation: Aobs=(εR[R]t+[R]t(εRG−εR)(Ks[G]t+Ks[R]t+1−sqrt((Ks[G]t+Ks[R]t+1)^2−4*[R]t Ks^2[G]t))/(2Ks[R]t))1 derived from Ks=[G][R]/[RG], [R]t=[R]+[RG], [G]t=[G]+[RG], and Aobs=(εR[R]+εRG[RG])1. The experimentally determined parameters are as follows: [R]t, the total concentration of a receptor; [G]t, the total concentration of a guest; Aobs, the observed absorbance; εR, the extinction coefficient of free receptor; 1, cell pathlength. The fitted parameters: εRG, the extinction coefficient of a receptor complex with a guest, Ks, the stability constant. For fluorescense titrations stability constants (Ks) were calculated by fitting as the data to the equation: Iobs=IR+(IRG−IR)(Ks[G]t+Ks[R]t+1−sqrt((Ks[G]t+Ks[R]t+1)^2−4*[R]tKs^2[G]t))/(2Ks[R]t) derived from Ks=[G][R]/[RG], [R]t=[R]+[RG], [G]t=[G]+[RG], and Iobs=IR+IRG. The experimentally determined parameters are as follows: [R]t, the total concentration of a receptor; [G]t, the total concentration of a guest; Iobs, the observed fluorescence intensity; IR, the fluorescence intensity of free receptor at a given concentration. The fitted parameters: IRG, the fluorescence intensity of a receptor complex with aguest at a given concentration, Ks, the stability constant. The calculations were performed using software Sigma Plot 1.02 (Jandel Scientific) with tolerance value 0.000100. The goodness of fit was evaluated by means of the Student's Paired t-Test (P-value>0.05).
A fluorescence titration study was performed as follows: a stock solution of the receptor (compound IB) was prepared with distilled water. Using the equipment described in Example 6, an excitation wavelength of 384 nm was used to obtain the spectrum for the uncomplexed receptor. Thereafter, four (4) aliquots of a urea stock solution were added with fluorescence being measured after each addition. A composite spectrum is show in FIG. 8.
Fluorescence was measured for the stock receptor solution using an excitation wavelength of 384 nm with a peak emission being observed at 450 nm. The stock urea solution was then added and fluorescence was measured again. A composite spectrum is shown in FIG. 10, with curve (a) representing the receptor without urea and curve (b) representing the complexation of the receptor with urea.
Fluorescence was also measured using a 25 μM stock solution of the receptor in distilled water. […] A urea solution was prepared and added to the receptor solution to measure quenching due to complexation.
Fluorescence was measured for a 20 μM stock solution of compound ID in a 98:2 (v/v) DMSO:water solvent system. An excitation wavelength of 407 nm was used with a peak emission being observed at 450 nm. A 0.17 M urea solution was then added and fluorescence measured again. A composite spectrum is shown in FIG. 11, with curve (a) representing the receptor (i.e., compound ID) without urea and curve (b) representing the complexation of the receptor with urea. […]
Fluorescence was measured for a 20 μM stock solution of compound IE in a 1:1 (v/v) DMSO:CHCl3 solvent system. […] Twenty equivalents of urea were then added and fluorescence measured again. […]

[2] = water or aqueous medium; cited from earlier work
[3] = in water; read-out: dissociation constant of the complex with methylguanidinium ion; cited from earlier work
[4] = UV-visible titration of receptor with N-methylguanidine hydrochloride in distilled water; type: binding
Experimental: as §1
UV-visible titrations was performed by first preparaing a 30 μM receptor 5 (compound IA) stock solution in distilled water. […]
The following parameters were found from absorbance data measured at 410 nm: εR=6.50×10^3 cm^−1 M^−1, εRG=2.43×10^4 cm^−1 M^−1, Ks=1.0×10^5 M^−1.

[5] = Fluorescence quenching of receptor on addition of N-methylguanidinium; type: binding; settings: 30 μM receptor in distilled water, excitation 388 nm, 2 equivalents of guest
Experimental: as §1, with “The fitted parameters: εRG, the extinction coefficient of a receptor complex with a guest, Ks, the stability constant.” left out, “The fitted parameters: IRG, the fluorescence intensity of a receptor complex with aguest at a given concentration, Ks, the stability constant. The calculations were performed using software Sigma Plot 1.02 (Jandel Scientific) with tolerance value 0.000100. The goodness of fit was evaluated by means of the Student's Paired t-Test (P-value>0.05).” left out

[6] = in water, fluorescence quenching, read-out: Kd with urea

Kd ([1]; in DMSO, 30 μM receptor, excitation 384 nm, read-out: Kd for urea): 33 mM
Kd [1, 6]: 13 mM
SMILES: Nc1cccc(-c2ccc3c(n2)-c2nc4nc5c(cc4cc2CC3)CCc2ccc(C(=O)O)nc2-5)n1 [Compound IC, 5,6,9,10-Tetrahydro-13-(2-aminopyridin-6-yl)[1,10]phenanthrolino[2,3-b][1,10]phenanthroline-2-carboxylic acid]

Kd [1, 6]: < 17 mM
SMILES: Nc1ccc2cc3c(nc2n1)-c1nc2c(cc1CC3)CCc1cc3cc4c(nc3nc1-2)-c1nc(C(=O)O)ccc1CC4 [Compound IB, 17-Amino-5,6,9,10,12,13-hexahydro[1,10]phenanthrolino[2,3-b]pyrido[2′3′:2,3]quino[7,8-j][1,10]phenanthroline-2-carboxylic acid, potassium salt]

Kd ([1]; 98:2 (v/v) DMSO:water, 20 μM receptor, excitation 407 nm, read-out: Kd for urea): 50 mM
SMILES: O=C(O)c1ccc2c(n1)-c1nc3nc4c(cc3cc1CC2)CCc1ccc(-c2nc(O)cc(O)n2)nc1-4 [Compound ID, 5,6,9,10-Tetrahydro-13-(4,6-dihydroxypyrimidin-2-yl) [1,10]phenanthrolino [2,3-b][1,10]phenanthroline-2-carboxylic acid, potassium salt]

More lines, now with the values behind:

SMILES: COc1cc(N(C)C)c(OC)cc1CCNC(=O)c1ccc2c(n1)-c1nc3nc4c(cc3cc1CC2)CCc1ccc(C(=O)NCCNc2ccc3c5c(cccc25)C(=O)N(Cc2ccc(C(=O)OC(C)(C)C)cc2)C3=O)nc1-4 [Compound IE, 5,6,9,10-Tetrahydro[1,10]phenanthrolino[2,3-b][1,10]phenanthroline-2-(N-(4-aminoethyl-N′-(4-tert-butoxycarbonyltoluidyl)naphthyridine))carboxamide-13-(N-(2,5-dimethoxy-4-dimethylaminophenethyl))carboxamide]
Kd ([1]; 1:1 (v/v) DMSO:CHCl3, 20 μM receptor, excitation 460 nm, read-out: Kd for urea): 16 mM

SMILES: CCCCc1c2c(nc3c1CCc1cc4cc5c(nc4nc1-3)-c1nc3c(c(CCCC)c1CC5)CCc1cc4cccnc4nc1-3)-c1nc3ncccc3cc1CC2 [Compound 4]
solubility in water / aqueous medium [2]: not soluble in water

SMILES: O=C(O)c1ccc2c(n1)-c1nc3nc4c(cc3cc1CC2)CCc1ccc(C(=O)O)nc1-4 [Compound 3]
Kd [3]: 4.3 mM
solubility in water / aqueous medium [2]: soluble in water

SMILES: O=C(O)c1ccc2c(n1)-c1nc3nc4c(cc3cc1CC2)CCc1cc2c(nc1-4)-c1nc3ncccc3cc1CC2 [Compound IA, 5,6,9,10,12,13-Hexahydro[1,10]phenanthrolino[2,3-b]pyrido[2′3′:2,3]quino[7,8-j][1,10]phenanthroline-2-carboxylic acid, potassium salt]
stability constant Ks of complex with N-methylguanidinium ([4]; 30 μM receptor in distilled water, absorbance at 410 nm): 100000 M⁻¹
binds N-methylguanidinium more strongly than the arginine cork ([4]; in water): 430 times
Kd ([4]; in water, correlated from Ks, read-out: Kd of complex with N-methylguanidinium): 0.01 mM
emission band at 410 nm, remaining share of original fluorescence intensity [5]: approximately 24%
